Measured values as given in patent US9138436B2, “Inhibitors of Bruton's tyrosine kinase” (PHARMACYCLICS LLC, priority 2011, dated 2015).

molecular target: Btk (Homo sapiens, UniProt Q06187); assay: Btk in vitro inhibitory activity, acellular kinase assay (TR-FRET); type: biochemical
Method: Btk kinase activity is determined using a time-resolved fluorescence resonance energy transfer (TR-FRET) methodology. Measurements are performed in a reaction volume of 50 μL using 96-well assay plates. Kinase enzyme, inhibitor, ATP (at the Km for the kinase), and 1 μM peptide substrate (Biotin-AVLESEEELYSSARQ-NH2) are incubated in a reaction buffer composed of 20 mM Tris, 50 mM NaCl, MgCl2 (5-25 mM depending on the kinase), MnCl2 (0-10 mM), 1 mM DTT, 0.1 mM EDTA, 0.01% bovine serum albumin, 0.005% Tween-20, and 10% DMSO at pH 7.4 for one hour. The reaction is quenched by the addition of 1.2 equivalents of EDTA (relative to divalent cation) in 25 μL of 1× Lance buffer (Perkin-Elmer). Streptavidin-APC (Perkin-Elmer) and Eu-labeled p-Tyr100 antibody (Perkin-Elmer) in 1× Lance buffer are added in a 25 μL volume to give final concentrations of 100 nM and 2.5 nM, respectively, and the mixture is allowed to incubate for one hour. The TR-FRET signal is measured on a multimode plate reader with an excitation wavelength (λEx) of 330 nm and detection wavelengths (λEm) of 615 and 665 nm. Activity is determined by the ratio of the fluorescence at 665 nm to that at 615 nm. For each compound, enzyme activity is measured at various concentrations of compound. Negative control reactions are performed in the absence of inhibitor in replicates of six, and two no-enzyme controls were used to determine baseline fluorescence levels. Inhibition constants, Ki(app), are obtained using the program BatchKi (Kuzmic et al. (2000), Anal. Biochem. 286:45-50). IC50s are obtained according to the equation: IC50={Ki(app)/(1+[ATP]/Km^ATP)}+[E]total/2;
For all kinases, [ATP]=Km^ATP, [Btk]total=0.5 nM and [Lck]total=6 nM.

Chain of Btk (Q06187 whole entry): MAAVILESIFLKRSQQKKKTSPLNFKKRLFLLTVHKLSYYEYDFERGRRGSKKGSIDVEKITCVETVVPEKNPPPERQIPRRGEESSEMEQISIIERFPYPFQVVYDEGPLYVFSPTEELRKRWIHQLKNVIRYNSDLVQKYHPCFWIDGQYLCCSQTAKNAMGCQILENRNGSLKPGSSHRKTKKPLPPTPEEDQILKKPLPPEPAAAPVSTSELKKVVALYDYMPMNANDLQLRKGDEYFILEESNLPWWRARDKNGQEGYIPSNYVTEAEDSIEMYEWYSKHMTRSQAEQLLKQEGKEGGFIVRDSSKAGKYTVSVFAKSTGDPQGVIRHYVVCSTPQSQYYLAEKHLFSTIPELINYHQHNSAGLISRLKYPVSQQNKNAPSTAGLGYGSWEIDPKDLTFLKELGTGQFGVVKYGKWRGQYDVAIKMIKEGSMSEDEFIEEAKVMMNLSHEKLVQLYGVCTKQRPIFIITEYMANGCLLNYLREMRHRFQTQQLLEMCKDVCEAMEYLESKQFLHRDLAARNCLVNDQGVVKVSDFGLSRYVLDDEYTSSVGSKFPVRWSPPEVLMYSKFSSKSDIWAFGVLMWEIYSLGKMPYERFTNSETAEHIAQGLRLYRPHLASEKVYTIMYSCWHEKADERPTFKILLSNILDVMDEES

| IC50 | SMILES |
| --- | --- |
| < 100 nM | CN(C/C=C/C(=O)Nc1cccc(-n2nc(-c3ccc(Oc4ccccc4)cc3)c3c(N)ncnc32)c1)C1CCC1 [Example 7g, (E)-N-(3-(4-amino-3-(4-phenoxyphenyl)-1H-pyrazolo[3,4-d]pyrimidin-1-yl)phenyl)-4-(cyclobutyl(methyl)amino)but-2-enamide] |
| < 100 nM | CCN(C/C=C/C(=O)N1CCC[C@@H](n2nc(-c3ccc(Oc4ccccc4)cc3)c3c(N)ncnc32)C1)C1CC1 [Example 5a, (R,E)-1-(3-(4-amino-3-(4-phenoxyphenyl)-1H-pyrazolo[3,4-d]pyrimidin-1-yl)piperidin-1-yl)-4-(cyclopropyl(ethyl)amino)but-2-en-1-one] |
| < 100 nM | Nc1ncnc2c1c(-c1ccc(Oc3ccccc3)cc1)nn2[C@@H]1CCN(C(=O)/C=C/CNC2CC2)C1 [Example 3a, (R,E)-1-(3-(4-amino-3-(4-phenoxyphenyl)-1H-pyrazolo[3,4-d]pyrimidin-1-yl)pyrrolidin-1-yl)-4-(cyclopropylamino)but-2-en-1-one] |

The next lines start with the compound.

| SMILES | IC50 |
| --- | --- |
| CC(C)N(C/C=C/C(=O)N1CC[C@@H](n2nc(-c3ccc(Oc4ccccc4)cc3)c3c(N)ncnc32)C1)C1CC1 [Example 2q, (R,E)-1-(3-(4-amino-3-(4-phenoxyphenyl)-1H-pyrazolo[3,4-d]pyrimidin-1-yl)pyrrolidin-1-yl)-4-(cyclopropyl(isopropyl)amino)but-2-en-1-one] | < 100 nM |
| CN(C/C=C/C(=O)N1CCC[C@@H](n2nc(-c3ccc(Oc4ccccc4)cc3)c3c(N)ncnc32)C1)C1CCC1 [Example 2ak, (R,E)-1-(3-(4-amino-3-(4-phenoxyphenyl)-1H-pyrazolo[3,4-d]pyrimidin-1-yl)piperidin-1-yl)-4-(cyclobutyl(methyl)amino)but-2-en-1-one] | < 100 nM |
| COCCN(C/C=C/C(=O)N1CCC[C@@H](n2nc(-c3ccc(Oc4ccccc4)cc3)c3c(N)ncnc32)C1)C1CC1 [Example 2s, (R,E)-1-(3-(4-amino-3-(4-phenoxyphenyl)-1H-pyrazolo[3,4-d]pyrimidin-1-yl)piperidin-1-yl)-4-(cyclopropyl(2-methoxyethyl)amino)but-2-en-1-one] | < 100 nM |
| Nc1ncnc2c1c(-c1ccc(Oc3ccccc3)cc1)nn2[C@@H]1CCCN(C(=O)/C=C/CNC2CCCC2)C1 [Example 2aj, (R,E)-1-(3-(4-amino-3-(4-phenoxyphenyl)-1H-pyrazolo[3,4-d]pyrimidin-1-yl)piperidin-1-yl)-4-(cyclopentylamino)but-2-en-1-one] | < 100 nM |
| CN(C/C=C/C(=O)N1CC[C@@H](n2nc(-c3ccc(Oc4ccccc4)cc3)c3c(N)ncnc32)C1)C1CCCCC1 [Example 2w, (R,E)-1-(3-(4-amino-3-(4-phenoxyphenyl)-1H-pyrazolo[3,4-d]pyrimidin-1-yl)pyrrolidin-1-yl)-4-(cyclohexyl(methyl)amino)but-2-en-1-one] | < 100 nM |
| Nc1ncnc2c1c(-c1ccc(Oc3ccccc3)cc1)nn2[C@@H]1CCN(C(=O)/C=C/CN[C@H]2CCOC2)C1 [Example 2e, (E)-1-((R)-3-(4-amino-3-(4-phenoxyphenyl)-1H-pyrazolo[3,4-d]pyrimidin-1-yl)pyrrolidin-1-yl)-4-((S)-tetrahydrofuran-3-ylamino)but-2-en-1-one] | < 100 nM |
| Nc1ncnc2c1c(-c1ccc(Oc3ccccc3)cc1)nn2[C@@H]1CCN(C(=O)/C=C/CN[C@@H]2CCOC2)C1 [Example 2c, (E)-1-((R)-3-(4-amino-3-(4-phenoxyphenyl)-1H-pyrazolo[3,4-d]pyrimidin-1-yl)pyrrolidin-1-yl)-4-((R)-tetrahydrofuran-3-ylamino)but-2-en-1-one] | < 100 nM |
| CCN(C/C=C/C(=O)N1CC[C@@H](n2nc(-c3ccc(Oc4ccccc4)cc3)c3c(N)ncnc32)C1)C1CC1 [Example 2v, (R,E)-1-(3-(4-amino-3-(4-phenoxyphenyl)-1H-pyrazolo[3,4-d]pyrimidin-1-yl)pyrrolidin-1-yl)-4-(cyclopropyl(ethyl)amino)but-2-en-1-one] | < 100 nM |
| Nc1ncnc2c1c(-c1ccc(Oc3ccccc3)cc1)nn2[C@@H]1CCCN(C(=O)/C=C/CNC2COC2)C1 [Example 2n, (R,E)-1-(3-(4-amino-3-(4-phenoxyphenyl)-1H-pyrazolo[3,4-d]pyrimidin-1-yl)piperidin-1-yl)-4-(oxetan-3-ylamino)but-2-en-1-one] | < 100 nM |
